# In paper PMC6382696, “Drug Repurposing: The Anthelmintics Niclosamide and Nitazoxanide Are Potent TMEM16A Antagonists That Fully Bronchodilate Airways” (Frontiers in Pharmacology, 2019):
# Where two headings read alike, the source gives them in different places.
# Tests used:
# Assay type in all cases: cell-based
# [1] = test system: human bronchial smooth muscle cells; assay: Histamine-induced depolarization of human bronchial smooth muscle cells (FLIPR membrane potential); details: donor 199524, 1 M histamine (so in the source), read-out: EC50 inhibition of histamine-induced depolarization (converted)
# hTMEM16A (abc) = target: T1, hTMEM16A (abc) (Homo sapiens, UniProt Q5XXA6, DEL476-501); assay: TMEM16A halide-sensitive YFP (eYFP) high-throughput screening assay; set-up: expressed in transfected cells; details: for remaining activity at 5 µM / inhibition at 5 µM: 5 μM compound; for remaining activity at 5 µM: POC 0 = full block by benzbromarone, read-out: POC (percent of control) halide-sensitive YFP response in HTS; for inhibition at 5 µM: read-out: % inhibition of halide-sensitive YFP response during HTS
# T1 sequence (Q5XXA6 with tags, fused parts or gaps isoform Q5XXA6-5 DEL539-564): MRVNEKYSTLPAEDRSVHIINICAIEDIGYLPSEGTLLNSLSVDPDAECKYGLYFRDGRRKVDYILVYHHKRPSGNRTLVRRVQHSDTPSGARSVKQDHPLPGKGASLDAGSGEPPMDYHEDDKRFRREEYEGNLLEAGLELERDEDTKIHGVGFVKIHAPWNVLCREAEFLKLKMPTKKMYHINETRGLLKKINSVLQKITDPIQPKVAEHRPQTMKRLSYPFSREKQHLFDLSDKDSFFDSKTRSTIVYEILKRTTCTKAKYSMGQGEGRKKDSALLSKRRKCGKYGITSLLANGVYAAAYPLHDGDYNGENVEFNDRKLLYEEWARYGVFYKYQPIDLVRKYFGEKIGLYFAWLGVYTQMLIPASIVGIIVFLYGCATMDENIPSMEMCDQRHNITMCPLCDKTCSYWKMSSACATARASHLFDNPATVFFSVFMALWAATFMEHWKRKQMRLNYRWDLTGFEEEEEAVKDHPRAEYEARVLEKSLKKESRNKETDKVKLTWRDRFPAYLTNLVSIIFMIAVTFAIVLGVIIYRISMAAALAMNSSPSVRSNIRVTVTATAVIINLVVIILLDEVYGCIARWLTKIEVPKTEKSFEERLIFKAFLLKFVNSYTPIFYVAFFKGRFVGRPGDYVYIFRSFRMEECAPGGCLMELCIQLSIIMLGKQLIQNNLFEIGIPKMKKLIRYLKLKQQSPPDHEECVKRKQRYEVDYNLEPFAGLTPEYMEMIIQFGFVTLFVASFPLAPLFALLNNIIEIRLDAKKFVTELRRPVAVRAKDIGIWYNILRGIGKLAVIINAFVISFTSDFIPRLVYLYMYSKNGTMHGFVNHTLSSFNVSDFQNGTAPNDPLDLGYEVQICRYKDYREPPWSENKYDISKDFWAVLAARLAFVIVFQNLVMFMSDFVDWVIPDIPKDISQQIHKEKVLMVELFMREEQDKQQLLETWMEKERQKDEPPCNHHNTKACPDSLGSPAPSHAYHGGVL
# Procedure: The High-Throughput-Screening clone HEK293T:eYFP: TMEM16A(abc) stably expressing eYFP (H149Q,I153L) and human TMEM16A(abc) was generated by stable transfection followed by functional clone selection. HEK293T:eYFP (H149Q,I153L) was cultivated in propagation medium DMEM (PAN #P04-03550) containing 10% FBS (PAN #3302-P281402), 1x Pen/Strep (PAN #P06-07100), 1x L-glutamine (PAN #P04-80100), 10 mM HEPES (PAN #P05-01100) and 0.5 μg/ml puromycin (Sigma #P7255) and transfected with pIREShyg3:huTMEM16A(abc). Stable cell pool was generated by cultivation in propagation medium containing 0.5 μg/ml puromycin and 200 μg/ml hygromycin B for 20 days. Cell pool was then diluted in the same medium and seeded in 384-well microtiter plates. Grown clones were replicated into daughter plates using a CyBio Felix pipetting platform (Analytik Jena AG). Daughter plates were analyzed using the eYFP assay essentially as described in the HTS protocol below using a FLIPR-Tetra. Clones showing maximal quenching of eYFP fluorescence intensity after addition of trigger solution (assay buffer containing NaI and ionomycin) were selected for propagation from the mother plate and further characterized with regard to HTS assay development performance parameters including inhibition by the benchmark compound benzbromarone, S/B and relevant HTS quality control statistics (Z-factor, Z′-factor, RZ-factor, RZ′-factor). One clone was finally selected as HTS clone and used throughout the entire HTS campaign to identify TMEM16A antagonists.
# For the HTS screen, the screening cell line HEK293T:eYFP(H149Q,I153L):TMEM16A(abc) stably expressing halide sensitive YFP (eYFP (H149Q,I153L)) and human TMEM16A(abc) were propagated in DMEM (PAN #P04-03550) containing 10% FBS (PAN #3302-P281402), 1x Pen/Strep (PAN #P06-07100), 1x L-glutamine (PAN #P04-80100), 10 mM HEPES (PAN #P05-01100), 0.5 μg/ml puromycin (Sigma #P7255), and 150 μg/ml hygromycin B (Life Technologies #10687-010) in Corning TC-treated flasks. Twenty four hours prior to the assay 11,000 cells were seeded per well in 30 μl assay plating medium [propagation medium containing 0.01% Pluronic F-68 (PAN #P08-2100)] in Corning CellBIND 384-Well Flat Clear Bottom Black Polystyrene Microplates (Corning #3683) and cultivated for 24 h at 37°C. Before initiating the fully automated and scheduled HTS sequence, cell plates were transferred to an incubator and stored at RT and 0% CO2. Library compounds were delivered in Greiner 384 PP plates (Greiner #784201) containing 1mM compound dissolved in DMSO in columns 1–22 and DMSO in columns 23 and 24 and were stored in a stacker at RT. Further dilutions of compounds were generated by fully automated liquid handling using a CyBio 384-well/25 μl pipetting head (Analytik Jena AG) by diluting 0.5 μl compound (1 mM in DMSO) in 20 μl assay buffer [1xHBSS (Life Technologies #14025050) containing 10 mM HEPES (PAN #P05-01100) and 0.01% Pluronic F-68 (PAN #P08-2100), adjusted to pH 7.4] in Greiner 384 PP plates (Greiner #784201). Intermediate compound plates contained 25 μM library compounds in assay buffer containing 2.5% DMSO in columns 1–22, assay buffer containing 2.5% DMSO as neutral control in column 23 and 100 μM Benzbromarone (Sigma #B5774) in assay buffer containing 2.5% DMSO in column 24 as ligand control (benchmark antagonist) and were stored in a stacker at RT. Simultaneous to compound dilution medium was aspirated from cell plates using a Biotek 405 microplate washer followed by washing the cells twice with 65 μl/well assay buffer. With the final aspiration of assay buffer, the residual volume was adjusted to 15 μl. […] Cell plates were incubated for 30 min at RT and 0% CO2. After incubation cell plates were transferred to a FLIPR-Tetra and 25 μl trigger solution [assay buffer containing 20 mM sodium iodide (Sigma #383112) and 4 μM ionomycin (Sigma #I0634; stock solution 10 mM in DMSO)] was added before reading iodide-quenching of eYFP fluorescence intensity. […]
# [2] = test system: Wnt/β-catenin transcription; assay: Wnt/β-catenin transcription TOPFlash reporter assay; details: Wnt TopFlash IC50 over TMEM16A eYFP IC50
# [3] = HEK293T:eYFP:TMEM16A(abc), 30 min preincubation, 10 mM iodide, 2 μM ionomycin, read-out: IC50 in the eYFP HTS assay
smiles,measurement,setting,value
Oc1ccc(Cl)cc1Cc1cc(Cl)ccc1O [Dichlorophen],EC50,[1],4100 nM
O=C(Nc1ncc([N+](=O)[O-])s1)c1cccs1 [NTTP],IC50,"hTMEM16A (abc); supplement, read-out: IC50, TMEM16A (abc) eYFP HTS assay",2840 nM
O=C(Nc1ccc(Cl)cc1)c1cc(Cl)ccc1O [Cpd 5],"IC50 Ratio, Wnt/TMEM16A",[2],3.51
N#Cc1c(C(F)(F)F)cc(O)n2c1nc1ccccc12 [1PBC],remaining activity at 5 µM,hTMEM16A (abc),74.8%
same,inhibition at 5 µM,hTMEM16A (abc),25.2%
same,IC50,"hTMEM16A (abc); 22-point dose-response, read-out: IC50, TMEM16A eYFP assay dose response of the HTS campaign",1050 nM
CCc1c(C)nc(SCC(=O)Nc2nc(-c3ccc(OC)cc3)cs2)[nH]c1=O [T16Ainh-A01],EC50,[1],3900 nM
O=C(Nc1ccc([N+](=O)[O-])cc1Cl)c1cc(Cl)ccc1O [Niclosamide],"IC50 Ratio, Wnt/TMEM16A",[2],2.62
same,remaining activity at 5 µM,hTMEM16A (abc),69 ± 3.3%
same,inhibition at 5 µM,hTMEM16A (abc),31%
same,IC50,hTMEM16A (abc); [3],140 nM
COc1cc([N+](=O)[O-])ccc1NC(=O)c1cc(Cl)c2ccccc2c1O [Cpd 4],remaining activity at 5 µM,hTMEM16A (abc),61.1 ± 7.8%
same,inhibition at 5 µM,hTMEM16A (abc),38.9%
same,IC50,hTMEM16A (abc); [3],970 nM
CCc1oc2ccccc2c1C(=O)c1cc(Br)c(O)c(Br)c1 [Benzbromarone],EC50,[1],9900 nM
